EC50 and Emax data for 14 compounds are collected here from patent publication US20250145600A1, “2-((4-((S)-2-(4-CHLORO-2-FLUOROPHENYL)-2-METHYLBENZO[D][1,3]DIOXOL-4-YL)PIPERIDIN-1-YL)METHYL)-1-(((S)-OXETAN-2-YL)METHYL)-1H-IMIDAZOLE DERIVATIVES AS ACTIVATORS OF THE GLP1 RECEPTOR FOR THE TREATMENT OF OBESITY” (Novartis AG, priority 2022, published 2025).

For the test, the target named is human GLP1R (hGLP1R) (Homo sapiens, UniProt P43220). The test can be described thus: Human GLP1R β-arrestin recruitment assay (PathHunter). Type of test: cell-based. Set-up: insert synthesized by GeneArt 93-0164 (CHO-K1-EA parental cells); 93-0491 (pCMV PK vector bundle). Conditions: CHO-hGLP1R-β-arrestin cells; for EC50: 2 h at 37° C., top concentration 30 μM, read-out: Beta-Arrestin assay EC50 Mean; for Emax: relative to GLP1(7-36), read-out: Beta-Arrestin assay Emax (%). Here is the method:
Compounds of formula (I) according to the invention were tested in the following cellular assays that measure the intracellular cAMP concentration, beta-arrestin recruitment and receptor internalization. The cAMP is generated by the activation of GLP1R. The extent to which the GLP1R is internalized into the cell and away from the plasma membrane following activation is also shown in Table 2. EC50 for each assay is defined as the concentration of the compound that leads to half of the maximum response (after baseline correction). Emax is defined as the maximum response observed for the test compound, normalized to the maximum response observed for the endogenous ligand (GLP1(7-36)) to GLP1R.
Human GLP1R β-Arrestin Recruitment Assay
The extent to which agonists recruited β-arrestin was measured using the PathHunter® β-arrestin assay (DiscoverX). This assay measures binding of β-arrestin to the receptor using an enzyme complementation approach. […] When β-arrestin is recruited to the receptor the enzyme becomes active and generates luminescence in the presence of a chemiluminescent substrate (PathHunter® Detection Kit, DiscoverX cat #93-0001). Luminescence can be measured on a relevant detector. CHO-hGLP1R-β-arrestin cells stably overexpressing hGLP1R with Prolink tag and β-arrestin with EA tag were seeded at 20 μL per well in white 384-well poly-D-Lysine coated plates (Greiner Bio One, cat #781945) in Plating Reagent 2 (DiscoverX, cat #93-0563R^2A), and incubated overnight at 37° C., 5% CO2 with humidity. The following day, agonists were prepared at 5 times the final required concentration. To generate triplicate dose response curves, compounds were serially diluted 3-fold in assay buffer (HBSS, 10 mM Hepes and 0.1% BSA), then added to the cell assay plate to a final volume of 25 μL and final top concentrations starting at 30 μM. In the same plate and assay buffer as the tested compounds, were EC100 control wells containing GLP1 (7-36) peptide (Bachem, cat #H-6795) at a final concentration of 1 μM and also EC0 control wells containing no compound. The plate was incubated at 37° C., 5% CO2 with humidity for 2 h after adding the compounds to the cells. Then the detection reagent was prepared (19 parts cell assay buffer, 5 parts substrate reagent 1 and 1 part substrate reagent 2 as per manufacturers recommendations, DiscoverX cat #93-0001), and 12 μL were added per well to the cell assay plate. The plate was incubated for an additional hour in the dark at RT. Luminescence was then measured with an Envision 2104 Multilabel reader with “TRF Light Unit, 337 nm” (Perkin Elmer) using the Ultra-Sensitive protocol setting “384-well US luminescence detector” with the 384-well luminescence aperture, 0.1 sec per well. β-arrestin recruitment was calculated and expressed as percent of the GLP1 (7-36) EC100 control wells: [(sample signal−mean EC0 signal)/(mean EC100 of GLP1 (7-36) signal−mean EC0 signal)]*100 using Microsoft Excel. Curve fitting for EC50 determinations was performed using GraphPad Prism. The 4-parameter logistic model, Hill slope was used: Y=Bottom+(Top−Bottom)/(1+10^((Log EC50−X)*Hill Slope)), where Y is the functional response; X is the compound concentration; bottom is A0 or the minimum value (at 0 dose); top is Ainf or the maximum value (at infinite dose); EC50 is the point of inflection (i.e. the point on the sigmoid shaped curve halfway between A0 and Ainf). The EC50 value was calculated in μM. Emax is the maximal activity detected within the concentration range, derived from the fitted curve relative to GLP1(7-36).
PathHunter CHO-K1-EA parental cells (DiscoverX, cat #93-0164) were plated at a density of 2×10^6 cells per T75 cm^2 flask in 22 mL of complete medium (AssayComplete Cell Culture kit 107, DiscoverX, cat #92-3107G). The following day, the medium was replaced with 22 mL of fresh medium with no antibiotics and cells were transfected as follows. […]
In general terms: Recruitment of arrestin is a read-out of receptor activation apart from second messengers.

Chain of human GLP1R (hGLP1R) (P43220 24-463): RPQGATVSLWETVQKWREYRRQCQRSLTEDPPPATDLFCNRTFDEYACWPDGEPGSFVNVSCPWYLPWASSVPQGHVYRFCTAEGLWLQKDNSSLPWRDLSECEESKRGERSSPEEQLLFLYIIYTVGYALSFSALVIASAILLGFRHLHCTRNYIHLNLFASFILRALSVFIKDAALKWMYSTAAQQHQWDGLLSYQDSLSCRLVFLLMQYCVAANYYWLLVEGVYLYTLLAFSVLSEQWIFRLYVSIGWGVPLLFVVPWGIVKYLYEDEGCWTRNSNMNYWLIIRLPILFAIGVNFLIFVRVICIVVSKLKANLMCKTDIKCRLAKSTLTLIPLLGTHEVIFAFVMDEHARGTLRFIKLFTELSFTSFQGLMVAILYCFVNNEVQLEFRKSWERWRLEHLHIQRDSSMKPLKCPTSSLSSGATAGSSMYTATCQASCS

In general, EC50 refers to the concentration needed to bring the measured effect to its halfway point. As a reminder, the Emax is the size of the effect at its maximum, as opposed to the concentration needed. Consider `Cc1nc(CN2CCC(c3cccc4c3O[C@@](C)(c3ccc(Cl)cc3F)O4)CC2)n(C[C@@H]2CCO2)c1-c1nc(C(=O)O)c(C)o1` [Compound C-1, 2-(2-((4-((S)-2-(4-chloro-2-fluorophenyl)-2-methylbenzo[d][1,3]dioxol-4-yl)piperidin-1-yl)methyl)-4-methyl-1-(((S)-oxetan-2-yl)methyl)-1H-imidazol-5-yl)-5-methyloxazole-4-carboxylic acid], for which the EC50 was > 30 µM and the Emax amounted to 2%.
For `C[C@]1(c2ccc(Cl)cc2F)Oc2cccc(C3CCN(Cc4nc(C(F)(F)F)c(-c5nc(C(=O)O)co5)n4C[C@@H]4CCO4)CC3)c2O1` [Compound C-4, 2-(2-((4-((S)-2-(4-chloro-2-fluorophenyl)-2-methylbenzo[d][1,3]dioxol-4-yl)piperidin-1-yl)methyl)-1-(((S)-oxetan-2-yl)methyl)-4-(trifluoromethyl)-1H-imidazol-5-yl)oxazole-4-carboxylic acid] the same measures were > 30 µM and 0%.
For `CCc1nc(CN2CCC(c3cccc4c3O[C@@](C)(c3ccc(Cl)cc3F)O4)CC2)n(C[C@@H]2CCO2)c1-c1nc(C(=O)O)co1` [Compound C-5, 2-(2-((4-((S)-2-(4-chloro-2-fluorophenyl)-2-methylbenzo[d][1,3]dioxol-4-yl)piperidin-1-yl)methyl)-4-ethyl-1-(((S)-oxetan-2-yl)methyl)-1H-imidazol-5-yl)oxazole-4-carboxylic acid] the same measures were > 30 µM and 0%.
Taken in the same sequence, the figures for `CCc1nc(CN2CCC(c3cccc4c3O[C@@](C)(c3ccc(Cl)cc3F)O4)CC2)n(C[C@H]2CCO2)c1-c1nc(C(=O)O)co1` [Compound C-7, 2-(2-((4-((S)-2-(4-chloro-2-fluorophenyl)-2-methylbenzo[d][1,3]dioxol-4-yl)piperidin-1-yl)methyl)-4-ethyl-1-(((R)-oxetan-2-yl)methyl)-1H-imidazol-5-yl)oxazole-4-carboxylic acid] were > 30 µM and 5%.
Regarding `Cc1nc(CN2CCC(c3cccc4c3O[C@@](C)(c3ccc(Cl)cc3F)O4)CC2)n(C[C@@H]2CCO2)c1-c1nc(C(=O)O)co1` [Compound C-9, 2-(2-((4-((S)-2-(4-chloro-2-fluorophenyl)-2-methylbenzo[d][1,3]dioxol-4-yl)piperidin-1-yl)methyl)-4-methyl-1-(((S)-oxetan-2-yl)methyl)-1H-imidazol-5-yl)oxazole-4-carboxylic acid], the concentration for a half-maximal effect (EC50) is > 30 µM and the maximum response (Emax) came to 0%.
For the compound `CCc1oc(-c2c(C)nc(CN3CCC(c4cccc5c4O[C@@](C)(c4ccc(Cl)cc4F)O5)CC3)n2C[C@@H]2CCO2)nc1C(=O)O` [Compound C-10, 2-(2-((4-((S)-2-(4-chloro-2-fluorophenyl)-2-methylbenzo[d][1,3]dioxol-4-yl)piperidin-1-yl)methyl)-4-methyl-1-(((S)-oxetan-2-yl)methyl)-1H-imidazol-5-yl)-5-ethyloxazole-4-carboxylic acid], the 50% effective concentration (EC50) is > 30 µM and the Emax amounted to 0%.
As for `Cc1oc(-c2nc(CN3CCC(c4cccc5c4O[C@@](C)(c4ccc(Cl)cc4F)O5)CC3)n(C[C@@H]3CCO3)c2C)nc1C(=O)O` [Compound C-12, 2-(2-((4-((S)-2-(4-chloro-2-fluorophenyl)-2-methylbenzo[d][1,3]dioxol-4-yl)piperidin-1-yl)methyl)-5-methyl-1-(((S)-oxetan-2-yl)methyl)-1H-imidazol-4-yl)-5-methyloxazole-4-carboxylic acid], the concentration for a half-maximal effect (EC50) is > 30 µM and the maximum response (Emax) came to 10%.
In the case of `Cc1c(-c2nc(C(=O)O)co2)nc(CN2CCC(c3cccc4c3O[C@@](C)(c3ccc(Cl)cc3F)O4)CC2)n1C[C@@H]1CCO1` [Compound C-13, 2-(2-((4-((S)-2-(4-chloro-2-fluorophenyl)-2-methylbenzo[d][1,3]dioxol-4-yl)piperidin-1-yl)methyl)-5-methyl-1-(((S)-oxetan-2-yl)methyl)-1H-imidazol-4-yl)oxazole-4-carboxylic acid], the EC50 was > 30 µM and the maximal effect (Emax) was determined as 12%.
For `Cc1c(-c2nc(C(F)(F)F)c(C(=O)O)o2)nc(CN2CCC(c3cccc4c3O[C@@](C)(c3ccc(Cl)cc3F)O4)CC2)n1C[C@@H]1CCO1` [Compound C-14, 2-(2-((4-((S)-2-(4-chloro-2-fluorophenyl)-2-methylbenzo[d][1,3]dioxol-4-yl)piperidin-1-yl)methyl)-5-methyl-1-(((S)-oxetan-2-yl)methyl)-1H-imidazol-4-yl)-4-(trifluoromethyl)oxazole-5-carboxylic acid] the same measures were > 30 µM and 0%.
For the compound `Cc1c(-c2cnc(C(=O)O)o2)nc(CN2CCC(c3cccc4c3O[C@@](C)(c3ccc(Cl)cc3F)O4)CC2)n1C[C@@H]1CCO1` [Compound C-16, 5-(2-((4-((S)-2-(4-chloro-2-fluorophenyl)-2-methylbenzo[d][1,3]dioxol-4-yl)piperidin-1-yl)methyl)-5-methyl-1-(((S)-oxetan-2-yl)methyl)-1H-imidazol-4-yl)oxazole-2-carboxylic acid], the half-maximal effective concentration (EC50) was > 30 µM and the maximal response (Emax) is 11%.
Taken in the same sequence, the figures for `Cc1c(-c2cc(C(=O)O)n(C)n2)nc(CN2CCC(c3cccc4c3O[C@@](C)(c3ccc(Cl)cc3F)O4)CC2)n1C[C@@H]1CCO1` [Compound C-17, 3-(2-((4-((S)-2-(4-chloro-2-fluorophenyl)-2-methylbenzo[d][1,3]dioxol-4-yl)piperidin-1-yl)methyl)-5-methyl-1-(((S)-oxetan-2-yl)methyl)-1H-imidazol-4-yl)-1-methyl-1H-pyrazole-5-carboxylic acid] were > 30 µM and 2%.
Take `Cc1c(-c2coc(C(=O)O)n2)nc(CN2CCC(c3cccc4c3O[C@@](C)(c3ccc(Cl)cc3F)O4)CC2)n1C[C@@H]1CCO1` [Compound C-18, 4-(2-((4-((S)-2-(4-chloro-2-fluorophenyl)-2-methylbenzo[d][1,3]dioxol-4-yl)piperidin-1-yl)methyl)-5-methyl-1-(((S)-oxetan-2-yl)methyl)-1H-imidazol-4-yl)oxazole-2-carboxylic acid]: the EC50 is > 30 µM and the Emax worked out at 16%.
For `Cc1cc(-c2nc(CN3CCC(c4cccc5c4O[C@@](C)(c4ccc(Cl)cc4F)O5)CC3)n(C[C@@H]3CCO3)c2C)oc1C(=O)O` [Compound C-19, 5-(2-((4-((S)-2-(4-chloro-2-fluorophenyl)-2-methylbenzo[d][1,3]dioxol-4-yl)piperidin-1-yl)methyl)-5-methyl-1-(((S)-oxetan-2-yl)methyl)-1H-imidazol-4-yl)-3-methylfuran-2-carboxylic acid] the same measures were > 30 µM and 7%.
Taken in the same sequence, the figures for `Cc1nc(CN2CCC(c3cccc4c3O[C@@](C)(c3ccc(Cl)cc3F)O4)CC2)n(C[C@@H]2CCO2)c1-c1coc(C(=O)O)n1` [Compound C-20, 4-(2-((4-((S)-2-(4-chloro-2-fluorophenyl)-2-methylbenzo[d][1,3]dioxol-4-yl)piperidin-1-yl)methyl)-4-methyl-1-(((S)-oxetan-2-yl)methyl)-1H-imidazol-5-yl)oxazole-2-carboxylic acid] were > 30 µM and 0%.
